Data set [1] has as its system 2-phenyl-1,4-quinone-induced writhing. Nature of the data set: 2-phenyl-1,4-quinone-induced writhing assay (analgesia). Type of data set: in vivo. The following applies: 50 mg/kg of body weight oral dose, mice. From the text: Exptl. Biol. Med., Vol. 45, 729 (1957)].
A general note: Writhing tests count abdominal constrictions after an irritant is injected.

In data set [2] the test system is tetrabenzazine-induced depression. Nature of the data set: inhibition of tetrabenzazine-induced depression (ptosis), antidepressant activity. Conditions: Mus musculus, ip, read-out: Antidepressant ED50 (50% inhibition of ptosis of tetrabenzazine-induced depression). Type of data set: in vivo, mice. An excerpt: (§1) The results are expressed in ED50 's (intraperitoneal dose effecting a 50% inhibition of ptosis of tetrabenzazine-induced depression in mice). The doses are in mg/kg of body weight. […] The toxicity data is expressed in ALD50 's (the acute lethal intraperitoneal dose, mg/kg of body weight, in 50% of the mice tested).

Data set [3] in a line: acute lethal toxicity (ALD50). Conditions: mouse, in vivo, ip; intraperitoneal, groups of four mice; read-out: Toxicity ALD50 (acute lethal dose in 50% of the mice tested).
Text: as §1

Data set [4] concerns supra maximal electro shock. Description: protection from supra maximal electro shock, anticonvulsant activity (method of Woodbury and Davenport). The format is in vivo. The following applies: intraperitoneal dose of about 5 mg/kg of body weight. The procedure: The compounds of the invention are useful as anticonvulsant agents for mammals, as determined by the method of Woodbury, L. A. and Davenport, V. D., in Arch. Int. Pharmacodynam, Vol. 92, (1952) at pages 97-107. For example, 1'-amino-1,3-dihydro-3-phenylspiro[isobenzofuran-1,4'-piperidine]at an intraperitoneal dose of about 5 mg/kg of body weight produced a 50% protection from the effect of a supra maximal electro shock. This datum illustrates the utility of the compounds of the invention for the treatment of convulsion in mammals when administered in amounts ranging from 0.1 to 50 mg/kg of body weight per day.

Like-named read-outs stand apart in the source and are kept apart here.

What is called ED50 is the dose that gives a 50% effect, or the effect in half of the subjects.

Take `[O-][N+]1(Cc2ccccc2)CCC2(CC1)OC(c1ccccc1)c1ccccc12` (stereo not drawn) [Example 13, 1'-benzyl-1,3-dihydro-3-phenylspiro[isobenzofuran-1,4'-piperidine]-1'-oxide]: the inhibition of writhing in data set [1] turned out to be 48%.

With `COc1ccc2c(c1)C1(CCN(O)CC1)OC2c1ccccc1` (stereo not drawn) [Example 10, 1'-hydroxy-1,3-dihydro-6-methoxy-3-phenylspiro[isobenzofuran-1,4'-piperidine]], the 50% effective dose (ED50) in data set [2] (intraperitoneal, mice) came to 3.2 mg/kg. In addition, in data set [3], the LD50 was more than 562 mg/kg.

`ON1CCC2(CC1)OC(c1ccccc1)c1ccccc12` (stereo not drawn) [Example 8, 1'-hydroxy-1,3-dihydro-3-phenylspiro[isobenzofuran-1,4'-piperidine]] showed an inhibition of writhing in data set [1] of 53%. Moreover, the ED50 in data set [2] (intraperitoneal, mice) stood at 1.4 mg/kg. Moreover, the LD50 in data set [3] was more than 562 mg/kg.

Consider `COc1ccc(C2OC3(CCN(O)CC3)c3ccccc32)cc1` (stereo not drawn) [Example 9, 1'-hydroxy-1,3-dihydro-3-(4-methoxyphenyl)spiro[isobenzofuran-1,4'-piperidine]], for which, in data set [2] (intraperitoneal, mice), the ED50 worked out at 2.6 mg/kg. Further, the LD50 in data set [3] is more than 562 mg/kg.

On to `O=C(ON1CCC2(CC1)OC(c1ccccc1)c1ccccc12)c1ccccc1` (stereo not drawn) [Example 4, 1'-benzoyloxy-1,3-dihydro-3-phenylspiro[isobenzofuran-1,4'-piperidine]], for which the inhibition of writhing in data set [1] was 54%.

For `C[N+]1([O-])CCC2(CC1)OC(c1ccccc1)c1ccccc12` (stereo not drawn) [Example 12, 1,3-dihydro-1'-methyl-3-phenylspiro[isobenzofuran-1,4'-piperidine]-1'-oxide], the ED50 in data set [2] is 6.5 mg/kg. Also, the LD50 in data set [3] amounted to 280 mg/kg.

In data set [1], `NN1CCC2(CC1)OC(c1ccccc1)c1ccccc12` (stereo not drawn) [Example 2, 1'-amino-1,3-dihydro-3-phenylspiro[isobenzofuran-1,4'-piperidine]] yielded an inhibition of writhing of 53%. For the same compound, the ED50 in data set [2] (intraperitoneal, mice) came out at 10.3 mg/kg. In data set [3], the LD50 worked out at 100 mg/kg. Further, the “protection from the effect of a supra maximal electro shock” value in data set [4] worked out at 50%.

In data set [1], `CC(C)NN1CCC2(CC1)OC(c1ccccc1)c1ccccc12` (stereo not drawn) [Example 3, 1'-(isopropylamino)1,3'-dihydro-3-phenylspiro[isobenzofuran-1,4'-piperidine]] came in with an inhibition of writhing of 27%.

For the compound `ON1CCC2(CC1)OC(c1ccc(F)cc1)c1ccccc12` (stereo not drawn) [Example 11, 1'-hydroxy-1,3-dihydro-3-(4-fluorophenyl)spiro[isobenzofuran-1,4'-piperidine]], the ED50 in data set [2] (intraperitoneal, mice) stood at 4 mg/kg. The LD50 in data set [3] turned out to be 316 mg/kg.
